Source: ChEMBL document CHEMBL1201862, “PubChem BioAssay data set” (2004)
Where a name gives a salt, the structure may show the parent alone.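 Step 1: Grow cells in 96-well plates. Step 2: Expose to compound for 48 hours at 5 concentrations. Step 3: Interpolate endpoints linearly; if unreached, use highest concentration. GI50 = concentration required for 50% inhibition of growth.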 Active and inactive are the calls of the source. Rule as the data show it: active = GI50 up to about 1.1 µM and inactive = higher.

Legend:
Experiment in all cases: NCI-60 cell line screen, 48 h
LOX IMVI = system: LOX IMVI
SK-MEL-28 = system: SK-MEL-28
IGROV-1 = system: IGROV-1
HCT-116 = system: HCT-116
SN12C = system: SN12C
SNB-19 = system: SNB-19
SR = system: SR
HCT-15 = system: HCT-15
M14 = system: M14
NCI-H522 = system: NCI-H522
CAKI-1 = system: CAKI-1
HOP-92 = system: HOP-92
786-0 = system: 786-0
SK-MEL-2 = system: SK-MEL-2
HOP-62 = system: HOP-62
OVCAR-3 = system: OVCAR-3
OVCAR-5 = system: OVCAR-5
OVCAR-8 = system: OVCAR-8
SF-268 = system: SF-268
A549 = system: A549

| Structure (SMILES) | GI50 (LOX IMVI) | GI50 (SK-MEL-28) | GI50 (IGROV-1) | GI50 (HCT-116) | GI50 (SN12C) | GI50 (SNB-19) | GI50 (SR) | GI50 (HCT-15) [µM] | GI50 (M14) | GI50 (NCI-H522) | GI50 (CAKI-1) | GI50 (HOP-92) | GI50 (786-0) | GI50 (SK-MEL-2) | GI50 (HOP-62) | GI50 (OVCAR-3) | GI50 (OVCAR-5) | GI50 (OVCAR-8) | GI50 (SF-268) | GI50 (A549) |
| --- | --- | --- | --- | --- | --- | --- | --- | --- | --- | --- | --- | --- | --- | --- | --- | --- | --- | --- | --- | --- |
| COP(=O)(OC)C(=O)N1N(c2ccc([N+](=O)[O-])cc2)C(=O)C(C)NC1(NNc1ccc([N+](=O)[O-])cc1)P(=O)(OC)OC (stereo not given) | > 100 µM (inactive) | > 100 µM (inactive) | > 100 µM (inactive) | > 100 µM (inactive) | > 100 µM (inactive) | > 100 µM (inactive) | > 100 µM (inactive) | > 100 | > 100 µM (inactive) | > 100 µM (inactive) | > 100 µM (inactive) | > 100 µM (inactive) | > 100 µM (inactive) | > 100 µM (inactive) | > 100 µM (inactive) | > 100 µM (inactive) | > 100 µM (inactive) | > 100 µM (inactive) | > 100 µM (inactive) | > 100 µM (inactive) |
| COC(=O)[C@]1(C)C(OC)=CC(=O)C2C1[C@H]1CCC[C@@H]21 (stereo not given in full) | > 100 µM (inactive) | > 100 µM (inactive) | > 100 µM (inactive) | > 100 µM (inactive) | > 100 µM (inactive) | > 100 µM (inactive) | > 100 µM (inactive) | > 100 | > 100 µM (inactive) | > 100 µM (inactive) | > 100 µM (inactive) | > 100 µM (inactive) | > 100 µM (inactive) | > 100 µM (inactive) | > 100 µM (inactive) | > 100 µM (inactive) | > 100 µM (inactive) | > 100 µM (inactive) | > 100 µM (inactive) | > 100 µM (inactive) |
| COC(=O)C(N)CCCC(N)C(=O)NC(C)C(=O)NC(CCC(=O)NCCNCCNc1c2ccccc2nc2cccc([N+](=O)[O-])c12)C(N)=O (stereo not given) | 14.7 µM (inactive) | 16.6 µM (inactive) | 4.6 µM (inactive) | 4.63 µM (inactive) | 12.8 µM (inactive) | 18.5 µM (inactive) | 19.7 µM (inactive) | 14.2 | 13.4 µM (inactive) | 1.65 µM (inactive) | 27.9 µM (inactive) | 4.83 µM (inactive) | 5.12 µM (inactive) | 8.51 µM (inactive) | 19 µM (inactive) | 12.3 µM (inactive) | 35.2 µM (inactive) | 8.79 µM (inactive) | 2.44 µM (inactive) | 4.67 µM (inactive) |
| CC1(C)CCCCCCC2CC2CCCCCC(C)(C)C1=O (stereo not given) | 19.8 µM (inactive) | > 100 µM (inactive) | > 100 µM (inactive) | 39.1 µM (inactive) | > 100 µM (inactive) | > 100 µM (inactive) | 0.787 µM (active) | 78.7 | > 100 µM (inactive) | 51.9 µM (inactive) | > 100 µM (inactive) | 62.5 µM (inactive) | 64 µM (inactive) | 40.6 µM (inactive) | > 100 µM (inactive) | 76.4 µM (inactive) | > 100 µM (inactive) | > 100 µM (inactive) | > 100 µM (inactive) | 45.7 µM (inactive) |
| O=C1/C(=C/c2cccc(Br)c2)Cc2ccccc21 | 45.1 µM (inactive) | > 100 µM (inactive) | 16.8 µM (inactive) | 27.6 µM (inactive) | > 100 µM (inactive) | 50.6 µM (inactive) | 24.5 µM (inactive) | 49.4 | 67.3 µM (inactive) | 96.4 µM (inactive) | 75.7 µM (inactive) | 24.8 µM (inactive) | > 100 µM (inactive) | 28.8 µM (inactive) | 44.6 µM (inactive) | 41.6 µM (inactive) | > 100 µM (inactive) | 78.9 µM (inactive) | 53.6 µM (inactive) | 26.8 µM (inactive) |
| Oc1ccc(C(O)C2CCCCN2)cc1O (stereo not given) [RIMITEROL HYDROBROMIDE] | 28.4 µM (inactive) | > 100 µM (inactive) | > 100 µM (inactive) | > 100 µM (inactive) | > 100 µM (inactive) | > 100 µM (inactive) | 71 µM (inactive) | > 100 | > 100 µM (inactive) | > 100 µM (inactive) | > 100 µM (inactive) | > 100 µM (inactive) | 18.9 µM (inactive) | > 100 µM (inactive) | > 100 µM (inactive) | > 100 µM (inactive) | > 100 µM (inactive) | > 100 µM (inactive) | > 100 µM (inactive) | > 100 µM (inactive) |
